Measured values reported in patent US20170306042A1, “IMMUNOGENIC MODULATION BY ENDOCRINE DEPRIVATION THERAPY IMPROVES SENSITIVITY OF TUMOR CELLS TO IMMUNE MEDIATED LYSIS” (The United States of America, as represented by the …, priority 2014, published 2017).

Experiments:
Assay type in all cases: cell-based, human
LNCaP cells = assay: Apoptosis PCR array (96 genes) in LNCaP cells
Experimental: The properties of ADT that induce immunogenic modulation and sensitize prostate tumor cells to immune-mediated attack are novel and have not been previously described. It was hypothesized that modulation of apoptotic genes might be part of the mechanism of action of ADT-induced CTL sensitization. […] In particular, gene expression was assessed using an apoptosis PCR array (SA Biosciences, Valencia, Calif.) as per the manufacturer's instructions. RT-PCR was performed on the 7300 Real-Time PCR System (Applied Biosystems, Carlsbad, Calif.). Where indicated, values were calculated as expression relative to GAPDH, as previously described (Ardiani et al., Cancer Res., 74(7): 1945-1957 (2014))

[1] = tested on: ZR75-1, MCF, BT549 and HCC1806 cells; assay: Viability of breast cancer cells treated with tamoxifen; conditions: 1 μM
Experimental: ZR75-1 (ER+PR+Her2+), MCF (ER+PR+Her2−), BT549 (ER−PR−Her2−), and HCC1806 (ER−PR−Her2−) cells were treated with vehicle or 1 μM tamoxifen to replicate intratumoral concentrations. FIGS. 12A-12D illustrate the fold increase in cell number following treatment. Viability never diminished more than 10% at any given time point.

ZR75-1 cells = assay: CTL assay after tamoxifen, ZR75-1 targets; conditions: ZR75-1 (ER+); 1 μM, 72 hours; CEA-specific or MUC-1 specific CTLs; E:T 30:1
Experimental: (§1) To determine sensitivity to immune-mediated killing, breast cancer cells treated with vehicle or 1 μM tamoxifen for 72 hours and then used as targets in a CTL assay using CEA-specific or MUC-1 specific CTLs as effector cells at an E:T ratio of 30:1.

MCF-7 cells = assay: CTL assay after tamoxifen, MCF-7 targets; conditions: MCF-7 (ER+); 1 μM, 72 hours; CEA-specific or MUC-1 specific CTLs; E:T 30:1
Experimental: as §1

BT549 cells = assay: CTL assay after tamoxifen, BT549 targets; conditions: BT549 (ER−); 1 μM, 72 hours; E:T 30:1
Experimental: as §1

HCC1806 cells = assay: CTL assay after tamoxifen, HCC1806 targets; conditions: HCC1806 (ER−); 1 μM, 72 hours; E:T 30:1
Experimental: as §1

[2] = apoptosis PCR array, negative = down-regulated

Row | Structure (SMILES) | number of 96 apoptosis genes down-regulated greater than 2-fold (LNCaP cells; RT-PCR array) | number of 96 apoptosis genes up-regulated greater than 2-fold (LNCaP cells; RT-PCR array) | CASP1 (Caspase 1) gene expression change (LNCaP cells; [2]) | CASP5 gene expression change (LNCaP cells; [2]) | CASP8 gene expression change (LNCaP cells; [2]) | CD27 gene expression change (LNCaP cells; [2]) | DAPK1 gene expression change (LNCaP cells; [2]) | HRK gene expression change (LNCaP cells; [2]) | NAIP gene expression change (LNCaP cells; [2]) | TNFRSF25 (DR3) gene expression change (LNCaP cells; [2]) | TNFSF8 gene expression change (LNCaP cells; [2]) | NAIP down-regulated (LNCaP cells; rounded from Table 1) | diminution of viability at any given time point [1] | CTL-mediated lysis (ZR75-1 cells) | CTL-mediated lysis (MCF-7 cells) | CEA-specific killing (BT549 cells) | CEA-specific killing (HCC1806 cells)
1 | C[C@]12CC[C@H](O)CC1=CC[C@@H]1[C@@H]2CC[C@]2(C)C(c3cccnc3)=CC[C@@H]12 [abiraterone] | 14 | 11 | −4.05 fold | −4.22 fold | −2.25 fold | −3.50 fold | −13.73 fold | −8.57 fold | −4.72 fold | −7.41 fold | −7.51 fold | 5 fold |  |  |  |  | 
2 | CC/C(=C(\c1ccccc1)c1ccc(OCCN(C)C)cc1)c1ccccc1 [tamoxifen] |  |  |  |  |  |  |  |  |  |  |  |  | ≤ 10% | improved the CTL-mediated lysis | improved the CTL-mediated lysis | improved CEA-specific killing | improved CEA-specific killing
